Data reported in paper PMC4937837 (Journal of Medicinal Chemistry, 2015).

Settings: mouse liver microsomes, NADPH, 1 μM compound, 1 h incubation

## O=C(NCCCCN1CCN(c2cccc3ccccc23)CC1)c1cnc2ccccc2c1 [Compound 32, N-(4-(4-(Naphthalen-1-yl)piperazin-1-yl)butyl)quinoline-3-carboxamide]
  in vitro rate constant (k): −0.017
